Reference: ChEMBL document CHEMBL1124186, “Synthesis and evaluation of tylosin-related macrolides modified at the aldehyde function: a new series of orally effective antibiotics” (1988)
Values after ≈ are worked out from the molar mass of the structure shown.

What was measured:
Streptococcus pneumoniae = experiment: In vitro antimicrobial activity against Streptococcus pneumoniae; type: functional
Streptococcus pyogenes = experiment: In vitro antimicrobial activity against Streptococcus pyogenes C203; type: functional
Haemophilus influenzae = experiment: In vitro antimicrobial activity against Haemophilus influenzae.; type: functional
Enterococcus faecium = experiment: In vitro antimicrobial activity against Streptococcus faecium X66; type: functional, streptococcus fae-cium
[1] = system: Staphylococcus epidermidis; experiment: In vitro antimicrobial activity against Staphylococcus epidermidis EPI1; type: functional
Staphylococcus aureus = experiment: In vitro antimicrobial activity against Staphylococcus aureus X1; type: functional

Row | Structure (SMILES) | MIC (Streptococcus pneumoniae) [µg/mL] | MIC (Streptococcus pyogenes) [µg/mL] | MIC (Haemophilus influenzae) [µg/mL] | MIC (Enterococcus faecium) [µg/mL] | MIC [1] [µg/mL] | MIC (Staphylococcus aureus) [µg/mL]
1 | CC[C@H]1OC(=O)C[C@@H](O)[C@H](C)[C@@H](O[C@@H]2O[C@H](C)[C@@H](O)[C@H](N(C)C)[C@H]2O)[C@@H](CC=O)C[C@@H](C)C(=O)/C=C/C(C)=C/[C@@H]1C | 0.12 (≈ 0.206 µM) | 0.25 (≈ 0.43 µM) | 1 (≈ 1.72 µM) | 0.5 (≈ 0.859 µM) | 0.25 (≈ 0.43 µM) | 0.25 (≈ 0.43 µM)
2 | CC[C@H]1OC(=O)C[C@@H](O)[C@H](C)[C@@H](O[C@@H]2O[C@H](C)[C@@H](O[C@H]3C[C@@](C)(O)[C@@H](O)[C@H](C)O3)[C@H](N(C)C)[C@H]2O)[C@@H](CCN2C(=O)c3ccccc3C2=O)C[C@@H](C)C(=O)/C=C/C(C)=C/[C@@H]1C | 8 (≈ 9.33 µM) | 64 (≈ 74.7 µM) | > 128 | 128 (≈ 149 µM) | 64 (≈ 74.7 µM) | 64 (≈ 74.7 µM)
3 | CC[C@H]1OC(=O)C[C@@H](O)[C@H](C)[C@@H](O[C@@H]2O[C@H](C)[C@@H](O[C@H]3C[C@@](C)(O)[C@@H](O)[C@H](C)O3)[C@H](N(C)C)[C@H]2O)[C@@H](CCI)C[C@@H](C)C(=O)/C=C/C(C)=C/[C@@H]1CO[C@@H]1O[C@H](C)[C@@H](O)[C@@H](O)[C@H]1OC | 16 (≈ 15.8 µM) | 4 (≈ 3.94 µM) | 128 (≈ 126 µM) | 128 (≈ 126 µM) | 2 (≈ 1.97 µM) | 2 (≈ 1.97 µM)
4 | CC[C@H]1C[C@@H](C)C(=O)/C=C/C(C)=C/[C@H](C)[C@@H](CC)OC(=O)C[C@@H](O)[C@H](C)[C@H]1O[C@@H]1O[C@H](C)[C@@H](O[C@H]2C[C@@](C)(O)[C@@H](O)[C@H](C)O2)[C@H](N(C)C)[C@H]1O | 64 (≈ 89.9 µM) | 128 (≈ 180 µM) | > 128 | > 128 | 64 (≈ 89.9 µM) | 128 (≈ 180 µM)
5 | CCOC(=O)NN(CC[C@H]1C[C@@H](C)C(=O)/C=C/C(C)=C/[C@H](CO[C@@H]2O[C@H](C)[C@@H](O)[C@@H](OC)[C@H]2OC)[C@@H](CC)OC(=O)C[C@@H](O)[C@H](C)[C@H]1O[C@@H]1O[C@H](C)[C@@H](O[C@H]2C[C@@](C)(O)[C@@H](O)[C@H](C)O2)[C@H](N(C)C)[C@H]1O)C(=O)OCC | 8 (≈ 7.43 µM) | 8 (≈ 7.43 µM) | > 128 | > 128 | 4 (≈ 3.72 µM) | 2 (≈ 1.86 µM)
6 | CC[C@H]1OC(=O)C[C@@H](O)[C@H](C)[C@@H](O[C@@H]2O[C@H](C)[C@@H](O[C@H]3C[C@@](C)(O)[C@@H](O)[C@H](C)O3)[C@H](N(C)C)[C@H]2O)[C@@H](CC=O)C[C@@H](C)C(=O)/C=C/C(C)=C/[C@@H]1C | 0.12 (≈ 0.165 µM) | 0.25 (≈ 0.344 µM) | 8 (≈ 11 µM) | 0.5 (≈ 0.689 µM) | 0.5 (≈ 0.689 µM) | 0.5 (≈ 0.689 µM)
7 | CC[C@H]1C[C@@H](C)C(=O)/C=C/C(C)=C/[C@H](CO)[C@@H](CC)OC(=O)C[C@@H](O)[C@H](C)[C@H]1O[C@@H]1O[C@H](C)[C@@H](O[C@H]2C[C@@](C)(O)[C@@H](O)[C@H](C)O2)[C@H](N(C)C)[C@H]1O | > 128 | > 128 | > 128 | > 128 | 128 (≈ 176 µM) | 128 (≈ 176 µM)

More lines, now with the values ahead:

Row | MIC (Streptococcus pneumoniae) [µg/mL] | MIC (Streptococcus pyogenes) [µg/mL] | MIC (Haemophilus influenzae) [µg/mL] | MIC (Enterococcus faecium) [µg/mL] | MIC [1] [µg/mL] | MIC (Staphylococcus aureus) [µg/mL] | Structure (SMILES)
8 | 1 (≈ 1.14 µM) | 1 (≈ 1.14 µM) | 16 (≈ 18.2 µM) | 4 (≈ 4.56 µM) | 0.25 (≈ 0.285 µM) | 0.25 (≈ 0.285 µM) | CC[C@H]1OC(=O)C[C@@H](O)[C@H](C)[C@@H](O[C@@H]2O[C@H](C)[C@@H](O)[C@H](N(C)C)[C@H]2O)[C@@H](CCOc2ccc(C=O)cc2)C[C@@H](C)C(=O)/C=C/C(C)=C/[C@@H]1CO[C@@H]1O[C@H](C)[C@@H](O)[C@@H](OC)[C@H]1OC
9 | 1 (≈ 0.934 µM) | 2 (≈ 1.87 µM) | > 128 | 8 (≈ 7.47 µM) | 2 (≈ 1.87 µM) | 2 (≈ 1.87 µM) | CC[C@H]1OC(=O)C[C@@H](O)[C@H](C)[C@@H](O[C@@H]2O[C@H](C)[C@@H](O[C@H]3C[C@@](C)(O)[C@@H](O)[C@H](C)O3)[C@H](N(C)C)[C@H]2O)[C@@H](CCOc2ccc(-c3ccccc3)cc2)C[C@@H](C)C(=O)/C=C/C(C)=C/[C@@H]1CO[C@@H]1O[C@H](C)[C@@H](O)[C@@H](OC)[C@H]1OC
10 | 64 (≈ 63.3 µM) | 4 (≈ 3.96 µM) | > 128 | > 128 | 2 (≈ 1.98 µM) | 1 (≈ 0.99 µM) | CC[C@H]1OC(=O)C[C@@H](O)[C@H](C)[C@@H](O[C@@H]2O[C@H](C)[C@@H](O[C@H]3C[C@@](C)(O)[C@@H](O)[C@H](C)O3)[C@H](N(C)C)[C@H]2O)[C@@H](CCSc2ccccc2)C[C@@H](C)C(=O)/C=C/C(C)=C/[C@@H]1CO[C@@H]1O[C@H](C)[C@@H](O)[C@@H](OC)[C@H]1OC
11 | 4 (≈ 3.82 µM) | 4 (≈ 3.82 µM) | > 128 | 32 (≈ 30.6 µM) | 1 (≈ 0.956 µM) | 0.5 (≈ 0.478 µM) | CC[C@H]1OC(=O)C[C@@H](O)[C@H](C)[C@@H](O[C@@H]2O[C@H](C)[C@@H](O[C@H]3C[C@@](C)(O)[C@@H](O)[C@H](C)O3)[C@H](N(C)C)[C@H]2O)[C@@H](CCOc2ncnc3ccccc23)C[C@@H](C)C(=O)/C=C/C(C)=C/[C@@H]1CO[C@@H]1O[C@H](C)[C@@H](O)[C@@H](OC)[C@H]1OC
12 | 1 (≈ 0.91 µM) | 2 (≈ 1.82 µM) | > 128 | 4 (≈ 3.64 µM) | 2 (≈ 1.82 µM) | 1 (≈ 0.91 µM) | CC[C@H]1OC(=O)C[C@@H](O)[C@H](C)[C@@H](O[C@@H]2O[C@H](C)[C@@H](O[C@H]3C[C@@](C)(O)[C@@H](O)[C@H](C)O3)[C@H](N(C)C)[C@H]2O)[C@@H](CCOc2ccc(C(=O)c3ccccc3)cc2)C[C@@H](C)C(=O)/C=C/C(C)=C/[C@@H]1CO[C@@H]1O[C@H](C)[C@@H](O)[C@@H](OC)[C@H]1OC
13 | 1 (≈ 0.951 µM) | 2 (≈ 1.9 µM) | 128 (≈ 122 µM) | 64 (≈ 60.9 µM) | 0.5 (≈ 0.476 µM) | 1 (≈ 0.951 µM) | CC[C@H]1OC(=O)C[C@@H](O)[C@H](C)[C@@H](O[C@@H]2O[C@H](C)[C@@H](O[C@H]3C[C@@](C)(O)[C@@H](O)[C@H](C)O3)[C@H](N(C)C)[C@H]2O)[C@@H](CCNc2ccc(OC(C)=O)cc2)C[C@@H](C)C(=O)/C=C/C(C)=C/[C@@H]1CO[C@@H]1O[C@H](C)[C@@H](O)[C@@H](OC)[C@H]1OC
14 | 8 (≈ 7.81 µM) | 1 (≈ 0.976 µM) | 128 (≈ 125 µM) | 128 (≈ 125 µM) | 2 (≈ 1.95 µM) | 0.5 (≈ 0.488 µM) | CC[C@H]1OC(=O)C[C@@H](O)[C@H](C)[C@@H](O[C@@H]2O[C@H](C)[C@@H](O[C@H]3C[C@@](C)(O)[C@@H](O)[C@H](C)O3)[C@H](N(C)C)[C@H]2O)[C@@H](CCOc2ccc(OC)cc2)C[C@@H](C)C(=O)/C=C/C(C)=C/[C@@H]1CO[C@@H]1O[C@H](C)[C@@H](O)[C@@H](OC)[C@H]1OC
15 | 16 (≈ 15.7 µM) | 1 (≈ 0.978 µM) | > 128 | 128 (≈ 125 µM) | 1 (≈ 0.978 µM) | 1 (≈ 0.978 µM) | CC[C@H]1OC(=O)C[C@@H](O)[C@H](C)[C@@H](O[C@@H]2O[C@H](C)[C@@H](O[C@H]3C[C@@](C)(O)[C@@H](O)[C@H](C)O3)[C@H](N(C)C)[C@H]2O)[C@@H](CCOc2ccc(C=O)cc2)C[C@@H](C)C(=O)/C=C/C(C)=C/[C@@H]1CO[C@@H]1O[C@H](C)[C@@H](O)[C@@H](OC)[C@H]1OC
16 | 2 (≈ 2.44 µM) | 0.25 (≈ 0.305 µM) | 16 (≈ 19.5 µM) | 8 (≈ 9.77 µM) | 0.25 (≈ 0.305 µM) | 0.25 (≈ 0.305 µM) | CC[C@H]1OC(=O)C[C@@H](O)[C@H](C)[C@@H](O[C@@H]2O[C@H](C)[C@@H](O)[C@H](N(C)C)[C@H]2O)[C@@H](CCO[N+](=O)[O-])C[C@@H](C)C(=O)/C=C/C(C)=C/[C@@H]1CO[C@@H]1O[C@H](C)[C@@H](O)[C@@H](OC)[C@H]1OC
